Laboratory results: paper PMC5041982, “Small-molecule inhibition of STAT3 in radioresistant head and neck squamous cell carcinoma” (Oncotarget, 2016)
Where two headings read alike, the source gives them in different places.

Tests used:
[1] = GLP-compliant safety study in rats; conditions: 28 days, data not shown
pSTAT1 (Tyr-701) = target: T1, pSTAT1 (Tyr-701) (Homo sapiens, UniProt P42224); test: Phosphoflow, IFN-γ-induced pSTAT1 in Kasumi-1 cells; type: cell-based
T1 construct: endogenous in cells; host or cells: Kasumi-1
T1 sequence (P42224 1-750): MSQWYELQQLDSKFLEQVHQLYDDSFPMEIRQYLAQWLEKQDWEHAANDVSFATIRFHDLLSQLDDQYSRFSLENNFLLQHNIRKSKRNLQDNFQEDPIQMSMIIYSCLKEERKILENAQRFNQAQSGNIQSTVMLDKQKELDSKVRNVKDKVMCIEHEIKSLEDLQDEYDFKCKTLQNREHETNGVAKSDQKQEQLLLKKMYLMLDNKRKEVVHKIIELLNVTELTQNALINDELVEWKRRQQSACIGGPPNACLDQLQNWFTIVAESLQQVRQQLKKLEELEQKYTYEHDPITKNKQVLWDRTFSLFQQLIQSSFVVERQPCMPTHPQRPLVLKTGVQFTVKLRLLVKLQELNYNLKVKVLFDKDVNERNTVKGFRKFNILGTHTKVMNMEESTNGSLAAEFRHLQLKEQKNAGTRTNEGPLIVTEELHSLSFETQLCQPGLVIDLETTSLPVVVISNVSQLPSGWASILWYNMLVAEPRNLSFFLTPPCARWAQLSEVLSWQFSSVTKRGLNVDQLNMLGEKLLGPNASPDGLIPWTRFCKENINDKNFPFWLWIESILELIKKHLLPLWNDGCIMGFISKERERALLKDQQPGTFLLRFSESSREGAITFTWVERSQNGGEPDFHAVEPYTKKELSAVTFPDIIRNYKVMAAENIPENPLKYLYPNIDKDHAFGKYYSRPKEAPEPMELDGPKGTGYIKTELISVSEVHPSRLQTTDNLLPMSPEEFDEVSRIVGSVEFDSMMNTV

COc1ccc(S(=O)(=O)Nc2cc(-c3c(O)ccc4ccccc34)c(O)c3ccccc23)cc1 [Compound C188-9]
Dose with no clinical, laboratory, or pathological abnormalities [1]: ≤ 200 mg/kg/d | IC50 (pSTAT1 (Tyr-701); Figure 2C, Kasumi-1, read-out: Phosphoflow pSTAT1 (Tyr-701) IC50, representative experiment): 13.4 µM | IC50 (pSTAT1 (Tyr-701); Kasumi-1, IFN-γ 10 ng/ml 15 min, mean, n ≥ 2, read-out: Ligand Induced Phosphorylation (Phosphoflow) pSTAT1 (IFN-γ) IC50): 9.6 ± 5.6 µM
